The subject of test [1] is adult Ctenocephalides felis fleas. The test can be described thus: Contact activity against adult Ctenocephalides felis (Example 4). The following applies: adult C. felis, coated pipe cleaner in vial, 72 hours post-treatment, read-out: EC50 (contact activity, percentage mortality). Here is the method: Compounds of formulae (I), (Ia) and/or (Ib) dissolved in 100% DMSO are diluted in acetone to a desired concentration. The resulting formulation is used to coat the fibers of a 0.5-inch-long piece of pipe cleaner placed in a glass scintillation vial. The vial is capped with a rubber gasket and filter paper insert. After the acetone has evaporated, ten adult Ctenocephalides felis fleas are added to each vial. The vials are then incubated at 22° C., 80% relative humidity, and 12 hours of light/12 hours of dark until a visual evaluation for mortality is performed at 72 hours post-treatment. Compound efficacy at a given dose is expressed as percentage mortality and adjusted to remove background mortality observed in control vials containing DMSO only. A dose response series of treated vials is implemented to determine EC50 values.

The subject of test [2] is adult C. felis fleas. Kind of test: Ingestion activity against adult Ctenocephalides felis, membrane feeding, motility (Example 6). To be noted: 48 h, bovine blood via artificial membrane, 48h post treatment, read-out: EC50 (ingestion activity, % motility reduction). Here is the method: Compounds of formulae (I), (Ia) and/or (Ib) dissolved in 100% DMSO are added to bovine blood and offered via an artificial membrane feeding system to adult C. felis fleas. The motility of fleas is then visually inspected 48h post treatment. Efficacy is expressed in % motility reduction compared to controls containing blood treated with DMSO only. A dose response series is implemented to determine EC50 values.

The next test relates to A. aegypti L1 larvae. The test can be described thus: Activity against larvae of Aedes aegypti (Example 3). The following applies: 48 h at 27° C., read-out: EC50 (percentage of mortality, larvae). Here is the method: Eight A. aegypti L1 larvae in a total volume of 64 μL water are added to 384-well microplates containing compounds of formulae (I), (Ia) and/or (Ib) formulated in 100% DMSO. The plates are incubated for 48 h at 27° C. Individual well images are acquired and analyzed using a pipeline to quantitatively assess the amount of larvae biomass accumulating at the bottom of the well. The efficacy of a compound at a given dose is expressed as “percentage of mortality” and determined by comparison to average biomass descriptors of positive and negative control wells containing 1.0 μM Fipronil or DMSO only, respectively. Dose response assay are conducted to determine an EC50 value.

Test [3] has as its system adult C. felis fleas. Kind of test: Ingestion activity against adult Ctenocephalides felis, membrane feeding, alternative method (Examples 7 and 13). The following applies: Ctenocephalides felis. Here is the method:
Selected compounds of formula (I), (Ia) and (Ib) and compound “125” of WO 2021/033141 dissolved in 100% DMSO are diluted in bovine blood with sodium heparin anti-coagulant. The resulting formulation is offered via an artificial membrane feeding system to approximately 15 adult C. felis fleas previously dispensed into 24-well plates. The plates are then incubated in a double-chambered device. Visual evaluation for mortality is performed at 48 hours post-treatment. Compound efficacy at a given dose is expressed as percentage mortality and determined by normalization to positive and negative controls. A dose response series is implemented to determine EC50 values.
Compounds of formulae (I), (Ia) and/or (Ib) dissolved in 100% DMSO are diluted in bovine blood with sodium heparin anti-coagulant. The resulting formulation is offered via an artificial membrane feeding system to approximately 15 adult C. felis fleas previously dispensed into 24-well plates. The plates are then incubated in a double-chambered device. Visual evaluation for mortality is performed at 48 hours post-treatment. Compound efficacy at a given dose is expressed as percentage mortality and determined by normalization to positive and negative controls. A dose response series is implemented to determine EC50 values.

The test system of another test is Plutella xylostella. The test can be described thus: Insecticidal test on Plutella xylostella (Example 15). The test is classed as in vivo. The following applies: 144 h, Chinese cabbage seedling dip, 6 days after dip treatment, read-out: activity level (corrected mortality rate). The procedure: The compounds of formula (I), (Ia) and/or (Ib) of the present invention or salts thereof are separately dispersed in water and diluted to 500 ppm and 50 ppm. Ten adults of Plutella xylostella are released onto Chinese cabbage seedlings and allowed to lay eggs thereon. 2 days after the release of the adults, the seedling is dipped in the dispersion for about 30 seconds. After air dried, the seedling is kept in a room at 25° C. 6 days after the dip treatment, the numbers of the dead and alive insects are counted. The corrected mortality rate is calculated according to the following formula and the insecticidal activity is evaluated according to the following criteria.

Test [4] has as its system adult R. sanguineus ticks. Kind of test: Contact activity against adult Rhipicephalus sanguineus (Example 5). To be noted: coated vials, 48 hours post-treatment, read-out: EC50 (contact activity, percentage mortality). The procedure: Compounds of formulae (I), (Ia) and/or (Ib) formulated in 100% DMSO are diluted in a solution containing acetone and Triton X-100 (0.02%). The resulting formulation is used to coat the inner walls of glass scintillation vials and the filter paper covering the cap of the vial. Once dried, ten adult R. sanguineus ticks are added to the vials. The vials are incubated at 24° C., 95% relative humidity, and 12 hours of light/12 hours of dark until evaluation. Ticks are visually evaluated for mortality at 48 hours post-treatment. Compound efficacy at a given dose is expressed as percentage mortality. A dose response series is implemented to determine EC50 values.

The test system of a further test is Myzus persicae. The test can be described thus: Insecticidal test on Myzus persicae (Example 17). The test is classed as in vivo. The following applies: 144 h, foliar application on Chinese cabbage, 6 days after application, read-out: control efficacy level (control rate). The text has this: The compounds of formula (I), (Ia) and/or (Ib) of the present invention or salts thereof are separately dispersed in water and diluted to 500 ppm and 50 ppm. Chinese cabbage plants are planted in plastic pots (diameter: 8 cm, height: 8 cm). Aphids (Myzus persicae) are propagated on the plants and then the number of surviving aphids is counted. The dispersion is applied to the foliage of the potted plants. After the plants are air dried, these are kept in a greenhouse. 6 days after the application, the number of the alive insects is counted on the plants. The control rate is calculated according to the following formula and the control efficacy is evaluated according to the following criteria. [formula] • Ta: the number of alive insects before the foliar application in a treated plot • T: the number of alive insects after the foliar application in a treated plot • Ca: the number of alive insects before the foliar application in an untreated plot • C: the number of alive insects after the foliar application in an untreated plot • A: the control rate is 100% • B: the control rate is 90 to 99% • C: the control rate is 80 to 89% • D: the control rate is 50 to 79%

The test system of the next test is Laodelphax striatellus. Kind of test: Insecticidal test on Laodelphax striatellus (Example 16). To be noted: 192 h, rice seedling dip, 3rd-instar nymphs, 8 days after inoculation, read-out: activity level (corrected mortality rate). The test is classed as in vivo. Here is the method: The compounds of formula (I), (Ia) and/or (Ib) of the present invention or salts thereof are separately dispersed in water and diluted to 500 ppm and 50 ppm. Rice plant seedlings are dipped in the dispersion for about 30 seconds. After air dried, the seedlings are put into a separate glass test tube and inoculated with ten 3rd-instar nymphs of Laodelphax striatellus and then the glass test tube is kept in a room at 25° C. 8 days after the inoculation, the numbers of the dead and alive insects are counted. The corrected mortality rate is calculated according to the following formula and the insecticidal activity is evaluated according to the following criteria.

A further test relates to Spodoptera litura. The test can be described thus: Insecticidal test on Spodoptera litura (Example 14). Format: in vivo. The following applies: foliar, 192 h, cabbage leaf dip, 2nd-instar larvae, 8 days after inoculation, read-out: activity level (corrected mortality rate). Here is the method:
The compounds of formula (I), (Ia) and/or (Ib) of the present invention or salts thereof are separately dispersed in water and diluted to 500 ppm and 50 ppm. Cabbage leaves are dipped in the dispersion for about 30 seconds. After air dried, the leaves are placed in a plastic Petri dish with a diameter of 9 cm and inoculated with ten 2nd-instar larvae of Spodoptera litura, after which the dish is closed and then allowed to stand in a room at 25° C. 8 days after the inoculation, the numbers of the dead and alive insects are counted. The corrected mortality rate is calculated according to the following formula and the insecticidal activity is evaluated according to the following criteria.
[formula] [formula] • A: the corrected mortality rate is 100% • B: the corrected mortality rate is 90 to 99% • C: the corrected mortality rate is 80 to 89% • D: the corrected mortality rate is 50 to 79%

The mark [5] stands for this setting: adult C. felis, bovine blood with sodium heparin, membrane feeding, 48 hours post-treatment, read-out: EC50 (ingestion activity, percentage mortality, alternative method).
[6] abbreviates: alternative method according to Example 7, mortality at 48 hours post-treatment, read-out: C. felis membrane feeding (ingestion/blood feeding) activity EC50.

pEC50: −log10 of the molar value.

From patent publication US20240336615A1, “CYCLOPROPYL-(HETERO)ARYL-SUBSTITUTED ETHYL-SULFOXIME-PYRIDINE DERIVATIVES” (Boehringer Ingelheim Vetmedica GmbH, priority 2023, published 2024) come the findings set out here.

The term mortality denotes the share of the test organisms that died.

With `CCS(=N)(=O)c1cc(-c2noc(C3(C(F)(F)F)CC3)n2)cnc1-c1nc2cc(C(F)(F)C(F)(F)F)nnc2n1C` (stereo not drawn) [Compound 31], the pEC50 in test [1] was > 5.00; in the test with adult C. felis fleas [2], > 6.00; with A. aegypti L1 larvae, > 7.40; with adult C. felis fleas [3] (setting [5]), > 6.00; in the test on adult C. felis fleas [3] (setting [6]), 7.11; in [4], 4.00 to 5.00. Further, the mortality at 50 ppm with Plutella xylostella and with Laodelphax striatellus (50 ppm) was 100% throughout. The pest or weed control at 50 ppm in the test with Myzus persicae came to 100%.

On to `CCS(=N)(=O)c1cc(-c2cc(C3CC3)no2)cnc1-c1nc2cc(C(F)(F)C(F)(F)F)cnc2n1C` (stereo not drawn) [Compound 19], for which the pEC50 in test [1] was > 5.00; with adult C. felis fleas [2], > 6.00; in the test with adult C. felis fleas [3] (setting [5]), 5.00 to 6.00; in [4] it was 4.00 to 5.00. Further, the mortality at 500 ppm in the test with Spodoptera litura, with Plutella xylostella and in the test with Laodelphax striatellus was 100% in each case. For the same compound, in the test with Myzus persicae, the pest or weed control at 500 ppm stood at 100%.

As for `CCS(=N)(=O)c1cc(-c2ccc(C3(F)CC3)cc2)cnc1-c1nc2cc(C(F)(F)C(F)(F)F)nnc2n1C` (stereo not drawn) [Compound 14], the pEC50 in test [1] was > 5.00; with adult C. felis fleas [2], > 6.00; with A. aegypti L1 larvae, > 7.40; with adult C. felis fleas [3] (setting [5]) it was > 6.00; in the test on adult C. felis fleas [3] (setting [6]), 6.71; in test [4] it was 4.00 to 5.00. Moreover, the mortality at 500 ppm with Spodoptera litura, in the test on Plutella xylostella and in the test on Laodelphax striatellus was 100% each time. Further, in the test on Myzus persicae, the pest or weed control at 500 ppm amounted to 100%.

Regarding `CCS(=N)(=O)c1cc(-c2cc(C3CC3)on2)cnc1-c1nc2cc(C(F)(F)C(F)(F)F)cnc2n1C` (stereo not drawn) [Compound 24], the pEC50 in test [1] was > 5.00; in the test with adult C. felis fleas [2], > 6.00; in the test with adult C. felis fleas [3] (setting [5]), > 6.00; in the test with adult C. felis fleas [3] (setting [6]), 6.08; in test [4], 4.00 to 5.00. Also, the mortality at 50 ppm in the test with Spodoptera litura (50 ppm) and with Plutella xylostella was 100% throughout. Besides, the mortality at 500 ppm with Plutella xylostella and in the test with Laodelphax striatellus was 100% each time. Also, the pest or weed control at 50 ppm with Myzus persicae was 100%. Moreover, the pest or weed control at 500 ppm with Myzus persicae is 100%.

Turning to `CCS(=N)(=O)c1cc(-c2noc(C3(F)CC3)n2)cnc1-c1nc2cc(C(F)(F)C(F)(F)F)cnc2n1C` (stereo not drawn) [Compound 5], the pEC50 in [1] is > 5.00; with adult C. felis fleas [2], 5.00 to 6.00; in the test with adult C. felis fleas [3] (setting [5]), 5.00 to 6.00; with adult C. felis fleas [3] (setting [6]) it was 5.96; in test [4], 4.00 to 5.00. In addition, the mortality at 500 ppm in the test with Spodoptera litura, in the test with Plutella xylostella and in the test on Laodelphax striatellus was 100% throughout. Further, the pest or weed control at 500 ppm in the test on Myzus persicae amounted to 100%.

As for `CCS(=N)(=O)c1cc(-c2ccc(C3CC3)cc2)cnc1-c1nc2cc(C(F)(F)C(F)(F)F)cnc2n1C` (stereo not drawn) [Compound 11], the pEC50 in test [1] was > 5.00; in the test on adult C. felis fleas [2], > 6.00; with A. aegypti L1 larvae it was > 7.40; with adult C. felis fleas [3] (setting [5]), > 6.00; in the test with adult C. felis fleas [3] (setting [6]), 6.09; in test [4], 4.00 to 5.00. Also, the mortality at 500 ppm in the test on Spodoptera litura, in the test on Plutella xylostella and in the test with Laodelphax striatellus was 100% each time. Besides, the pest or weed control at 500 ppm with Myzus persicae stood at 100%.
